Source: the NIST ThermoML archive (doi:10.1016/j.fluid.2011.05.017)
± gives the expanded uncertainty stated by the source.

Experiment: wn = mass fraction of the nth substance listed
Details: 101 kPa, Liquid; for viscosity: Capillary tube (Ostwald / Ubbelohde) method; for mass density: Vibrating tube method

`CCC(C)O` (stereo not drawn) [butan-2-ol] + O gave a viscosity (298.15 K, w1 = 0.7) of 3.342 ± 0.029 mPa·s, a viscosity (298.15 K, w1 = 0.8) of 3.098 ± 0.026 mPa·s and a viscosity (298.15 K, w1 = 0.9) of 2.812 ± 0.024 mPa·s. It also gave a mass density (298.15 K, w1 = 0.7) of 863.8 ± 0.2 kg/m3, a mass density (298.15 K, w1 = 0.8) of 843.6 ± 0.2 kg/m3 and a mass density (298.15 K, w1 = 0.9) of 822.8 ± 0.2 kg/m3. It also gave a viscosity (303.15 K, w1 = 0.7) of 2.795 ± 0.025 mPa·s, a viscosity (303.15 K, w1 = 0.8) of 2.608 ± 0.023 mPa·s and a viscosity (303.15 K, w1 = 0.9) of 2.375 ± 0.021 mPa·s. The mass density (303.15 K, w1 = 0.7) was 859.6 ± 0.2 kg/m3, the mass density (303.15 K, w1 = 0.8) was 839.2 ± 0.2 kg/m3 and the mass density (303.15 K, w1 = 0.9) was 818.8 ± 0.2 kg/m3. It also gave a viscosity (308.15 K, w1 = 0.7) of 2.377 ± 0.022 mPa·s, a viscosity (308.15 K, w1 = 0.8) of 2.216 ± 0.021 mPa·s and a viscosity (308.15 K, w1 = 0.9) of 2.029 ± 0.019 mPa·s. The mass density (308.15 K, w1 = 0.7) was 855.1 ± 0.2 kg/m3, the mass density (308.15 K, w1 = 0.8) was 834.8 ± 0.2 kg/m3 and the mass density (308.15 K, w1 = 0.9) was 813.5 ± 0.2 kg/m3.
